Source: patent publication US7795290B2 (Genentech, Inc., priority 2004, dated 2010)

Legend:
[1] = biological target: T1, DYRK2 (Homo sapiens, UniProt Q92630); experiment: HTS ATP-utilizing enzyme assay, off-chip mobility-shift (Caliper HTS 250); assay type: biochemical; details: kinase named = inhibitory activity/selectivity; test compound 10 μM; active = greater than three-sigma from mean
T1 sequence (Q92630 1-601): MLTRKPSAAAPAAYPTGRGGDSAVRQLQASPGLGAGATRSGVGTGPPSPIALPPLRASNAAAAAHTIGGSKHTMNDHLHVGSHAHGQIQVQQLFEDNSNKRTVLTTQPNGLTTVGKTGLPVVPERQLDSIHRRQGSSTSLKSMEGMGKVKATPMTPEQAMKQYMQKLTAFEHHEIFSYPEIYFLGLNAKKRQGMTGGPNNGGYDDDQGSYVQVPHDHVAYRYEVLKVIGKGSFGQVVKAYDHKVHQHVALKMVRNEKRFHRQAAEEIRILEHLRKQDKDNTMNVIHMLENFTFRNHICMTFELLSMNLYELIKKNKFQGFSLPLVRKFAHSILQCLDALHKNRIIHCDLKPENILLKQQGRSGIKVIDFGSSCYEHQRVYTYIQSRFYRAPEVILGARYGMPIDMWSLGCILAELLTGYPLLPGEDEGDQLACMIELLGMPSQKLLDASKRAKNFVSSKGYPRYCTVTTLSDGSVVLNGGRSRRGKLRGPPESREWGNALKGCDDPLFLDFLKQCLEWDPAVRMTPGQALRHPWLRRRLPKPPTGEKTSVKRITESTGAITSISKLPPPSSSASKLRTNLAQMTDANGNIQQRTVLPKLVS
From the text: The following procedures describe the reagent and plate preparation for a HTS of an ATP-utilizing enzyme, such as a protein kinase, run in an off-chip mobility-shift assay format. The following provides an HTS protocol for running a protein kinase HTS screen on a Caliper HTS 250 microfluidics system. The following parameters are dependent on the protein kinase used and can be determined by one skilled in the art as part of a typical assay development process. For example, the peptide substrate used can be identified from the current literature, by screening a peptide library of potential protein kinase substrates, or by other applicable means accepted in the field.
Assays to determine the kinase inhibitory activity of chemical entities of the present disclosure were performed using a Caliper HTS 250 microfluidics device, Greiner U-bottom assay plates, a Multidrop for transfer of reagents, and Biomek FX (AMNCBM03) software. Initially, 2.4 μL of a 1 mM solution of a test compound in 100% DMSO was added to a well of the Greiner U-bottom plate. A single Greiner U-bottom plate having 24×16 wells could include multiple test compounds. Next, 40 μL of 1.06× Assay Buffer was added to each well of the assay plate. Using the Biomek FX, 10 μL of 0.5 M EDTA was added by the span-8 to wells, indicated as 100% Control and 2.4 μL of 100% DMSO was added by the span-8 to wells, indicated as 0% Control. Using the Multidrop, 10 μL of 2.5× Enzyme Buffer, followed by 10 μL of 2.5× Substrate Buffer was added to each well of the assay plate. The total reaction volume in each well was 25 μL, and the concentration of the test compound was 10 μM. The assay plate was incubated for 2.5 hrs at 20° C. to 22° C. After the incubation period, using the Multidrop, 45 μL of 1.55× Termination Buffer was added to each well of the assay plate to stop the reaction. The inhibition of the ATP-utilizing enzyme, such as a particular protein kinase, was determined by measuring the ratio of the peptide substrate to phosphorylated product for each well of the assay plate using the Caliper HTS 250 system.
The use of three-sigma statistical limits represents a conservative method for declaring potential hits among targets. The three-sigma activity, as well as the mean population activity, can be different for each target enzyme. This method has an expected false positive rate, from an in-control measurement process, of […].
Each chemical entity listed in Table 2 was tested for protein kinase inhibitory activity according to the biological assays and definitions of protein kinase inhibitory activity as described herein. For each exemplary compound listed in Table 2, the inhibitory activity for at least one protein kinase according to the biological assays and definitions of protein kinase inhibitory activity as described herein is indicated.

[2] = biological target: T2, AKT1 (Homo sapiens, UniProt P31749); experiment: as above; assay type: biochemical; details: kinase named = inhibitory activity/selectivity; test compound 10 μM; active = greater than three-sigma from mean
T2 construct: purchased Upstate 14-276
How it was run: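 AKT1 activity was measured by off-chip mobility shift (Caliper HTS 250) as the ratio of peptide substrate to phosphorylated product. Test compound was at 10 μM, with 2.5 h incubation at 20–22° C. EDTA wells served as 100% control and DMSO wells as 0%. Hits were called at three-sigma limits.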

T2 sequence (P31749 whole entry): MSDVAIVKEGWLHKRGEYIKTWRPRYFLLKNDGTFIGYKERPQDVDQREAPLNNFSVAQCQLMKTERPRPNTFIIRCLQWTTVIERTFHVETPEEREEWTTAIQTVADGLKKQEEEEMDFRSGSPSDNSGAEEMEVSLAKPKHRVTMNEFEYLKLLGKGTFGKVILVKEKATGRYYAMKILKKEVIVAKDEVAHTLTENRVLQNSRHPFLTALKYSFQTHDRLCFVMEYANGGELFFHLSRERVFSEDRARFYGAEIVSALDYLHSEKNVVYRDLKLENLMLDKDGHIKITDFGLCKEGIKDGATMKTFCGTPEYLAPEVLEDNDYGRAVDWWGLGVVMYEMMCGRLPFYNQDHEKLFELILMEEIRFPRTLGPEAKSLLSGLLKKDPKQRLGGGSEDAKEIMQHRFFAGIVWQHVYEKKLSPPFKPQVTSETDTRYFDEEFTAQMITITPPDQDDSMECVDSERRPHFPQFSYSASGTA

| Activity [1] | Activity [2] | SMILES |
| --- | --- | --- |
| DYRK2 | – | COc1ccc(-c2csc(N(CCCN3CCOCC3)C(=O)Cc3cccc(Cl)c3)n2)cc1 [2-(3-chlorophenyl)-N-(4-(4-methoxyphenyl)thiazol-2-yl)-N-(3-morpholinopropyl)acetamide] |
| DYRK2 | – | COCCN(C(=O)CCC(=O)O)c1nc(-c2ccc(OC)cc2)cs1 [4-((2-methoxyethyl)(4-(4-methoxyphenyl)thiazol-2-yl)amino)-4-oxobutanoic acid] |
| DYRK2 | – | COc1ccc(-c2csc(N(CCc3ccc(OC)c(OC)c3)C(=O)CCC(=O)O)n2)cc1 [4-((3,4-dimethoxyphenethyl)(4-(4-methoxyphenyl)thiazol-2-yl)amino)-4-oxobutanoic acid] |
| DYRK2 | – | COCCCN(C(=O)CCC(=O)O)c1nc(-c2ccc(OC)cc2)cs1 [4-((4-(4-methoxyphenyl)thiazol-2-yl)(3-methoxypropyl)amino)-4-oxobutanoic acid] |
| DYRK2 | – | COc1ccc(-c2csc(N(CC3CCCO3)C(=O)CCC(=O)O)n2)cc1 (stereo not drawn) [4-((4-(4-methoxyphenyl)thiazol-2-yl)((tetrahydrofuran-2-yl)methyl)amino)-4-oxobutanoic acid] |
| – | AKT1 | CCOC(=O)CC1CCCN(C(=O)CCCN(C(=O)c2cccs2)c2nc(-c3cc4ccccc4o3)cs2)C1 (stereo not drawn) [ethyl 2-(1-(4-(N-(4-(benzofuran-2-yl)thiazol-2-yl)thiophene-2-carboxamido)butanoyl)piperidin-3-yl)acetate] |
| – | AKT1 | CCOC(=O)CC1CCN(C(=O)CCCN(C(=O)c2cccs2)c2nc(-c3cc4ccccc4o3)cs2)CC1 [ethyl 2-(1-(4-(N-(4-(benzofuran-2-yl)thiazol-2-yl)thiophene-2-carboxamido)butanoyl)piperidin-4-yl)acetate] |
| – | AKT1 | CCOC(=O)Cc1csc(NC(=O)c2csc(N(CCCN3CCOCC3)C(=O)c3cccs3)n2)n1 [ethyl 2-(2-(2-(N-(3-morpholinopropyl)thiophene-2-carboxamido)thiazole-4-carboxamido)thiazol-4-yl)acetate] |
| – | AKT1 | CCOC(=O)CN1CCN(CCCN(C(=O)c2cccs2)c2nc(-c3cc4ccccc4o3)cs2)CC1 [ethyl 2-(4-(3-(N-(4-(benzofuran-2-yl)thiazol-2-yl)thiophene-2-carboxamido)propyl)piperazin-1-yl)acetate] |
| – | AKT1 | CCOC(=O)c1csc(N(CCCN2CCOCC2)C(=O)c2cccs2)n1 [ethyl 2-(N-(3-morpholinopropyl)thiophene-2-carboxamido)thiazole-4-carboxylate] |
| – | AKT1 | CCOC(=O)CC(C)(C)c1csc(N(CCCN2CCOCC2)C(=O)c2cccs2)n1 [ethyl 3-methyl-3-(2-(N-(3-morpholinopropyl)thiophene-2-carboxamido)thiazol-4-yl)butanoate] |
| – | AKT1 | CCOC(=O)N1CCN(CCCN(C(=O)c2cccs2)c2nc(-c3cc4ccccc4o3)cs2)CC1 [ethyl 4-(3-(N-(4-(benzofuran-2-yl)thiazol-2-yl)thiophene-2-carboxamido)propyl)piperazine-1-carboxylate] |
| – | AKT1 | CCOC(=O)c1cc(-c2csc(N(CCCN3CCOCC3)C(=O)c3cccs3)n2)on1 [ethyl 5-(2-(N-(3-morpholinopropyl)thiophene-2-carboxamido)thiazol-4-yl)isoxazole-3-carboxylate] |
| – | AKT1 | COC(=O)C1CCCN1C(=O)CCN(C(=O)c1cccs1)c1nc(-c2cc3ccccc3o2)cs1 (stereo not drawn) [methyl 1-(3-(N-(4-(benzofuran-2-yl)thiazol-2-yl)thiophene-2-carboxamido)propanoyl)pyrrolidine-2-carboxylate] |
| – | AKT1 | COC(=O)C1CCCCN1CCCN(C(=O)c1cccs1)c1nc(-c2cc3ccccc3o2)cs1 (stereo not drawn) [methyl 1-(3-(N-(4-(benzofuran-2-yl)thiazol-2-yl)thiophene-2-carboxamido)propyl)piperidine-2-carboxylate] |
| – | AKT1 | COC(=O)C1CCCN1CCCN(C(=O)c1cccs1)c1nc(-c2cc3ccccc3o2)cs1 (stereo not drawn) [methyl 1-(3-(N-(4-(benzofuran-2-yl)thiazol-2-yl)thiophene-2-carboxamido)propyl)pyrrolidine-2-carboxylate] |
| – | AKT1 | COC(=O)C1CCN(C(=O)CCCN(C(=O)c2cccs2)c2nc(-c3cc4ccccc4o3)cs2)CC1 [methyl 1-(4-(N-(4-(benzofuran-2-yl)thiazol-2-yl)thiophene-2-carboxamido)butanoyl)piperidine-4-carboxylate] |
| – | AKT1 | COC(=O)C1CCCN1C(=O)CCCN(C(=O)c1cccs1)c1nc(-c2cc3ccccc3o2)cs1 (stereo not drawn) [methyl 1-(4-(N-(4-(benzofuran-2-yl)thiazol-2-yl)thiophene-2-carboxamido)butanoyl)pyrrolidine-2-carboxylate] |
| – | AKT1 | COC(=O)CNC(=O)CCN(C(=O)c1cccs1)c1nc(-c2cc3ccccc3o2)cs1 [methyl 2-(3-(N-(4-(benzofuran-2-yl)thiazol-2-yl)thiophene-2-carboxamido)propanamido)acetate] |
| – | AKT1 | COC(=O)CNC(=O)CCCN(C(=O)c1cccs1)c1nc(-c2cc3ccccc3o2)cs1 [methyl 2-(4-(N-(4-(benzofuran-2-yl)thiazol-2-yl)thiophene-2-carboxamido)butanamido)acetate] |
| – | AKT1 | COC(=O)c1ccc(-c2csc(N(CCCN3CCOCC3)C(=O)c3cccs3)n2)cc1 [methyl 4-(2-(N-(3-morpholinopropyl)thiophene-2-carboxamido)thiazol-4-yl)benzoate] |
| – | AKT1 | COC(=O)c1ccc(-c2csc(N(CCCN3CCOCC3)C(=O)c3cccs3)n2)nc1 [methyl 6-(2-(N-(3-morpholinopropyl)thiophene-2-carboxamido)thiazol-4-yl)nicotinate] |
| – | AKT1 | CC(C)(C)OC(=O)NC1CCN(CCCN(C(=O)c2cccs2)c2nc(-c3cc4ccccc4o3)cs2)C1 (stereo not drawn) [tert-butyl 1-(3-(N-(4-(benzofuran-2-yl)thiazol-2-yl)thiophene-2-carboxamido)propyl)pyrrolidin-3-ylcarbamate] |
| – | AKT1 | CC(C)(C)OC(=O)NC1CCN(C(=O)CCCN(C(=O)c2cccs2)c2nc(-c3cc4ccccc4o3)cs2)C1 (stereo not drawn) [tert-butyl 1-(4-(N-(4-(benzofuran-2-yl)thiazol-2-yl)thiophene-2-carboxamido)butanoyl)pyrrolidin-3-ylcarbamate] |
| – | AKT1 | CC(C)(C)OC(=O)NCCNC(=O)CCCN(C(=O)c1cccs1)c1nc(-c2cc3ccccc3o2)cs1 [tert-butyl 2-(4-(N-(4-(benzofuran-2-yl)thiazol-2-yl)thiophene-2-carboxamido)butanamido)ethylcarbamate] |
| – | AKT1 | CC(C)(C)OC(=O)N1CCN(CCCN(C(=O)c2cccs2)c2nc(-c3cc4ccccc4o3)cs2)CC1 [tert-butyl 4-(3-(N-(4-(benzofuran-2-yl)thiazol-2-yl)thiophene-2-carboxamido)propyl)piperazine-1-carboxylate] |
| – | AKT1 | CC(C)(C)OC(=O)N1CCN(C(=O)CCCN(C(=O)c2cccs2)c2nc(-c3cc4ccccc4o3)cs2)CC1 [tert-butyl 4-(4-(N-(4-(benzofuran-2-yl)thiazol-2-yl)thiophene-2-carboxamido)butanoyl)piperazine-1-carboxylate] |
